Laboratory results as given in patent US20230085307A1, “PYRIDAZINONE COMPOUND AND HERBICIDE” (NISSAN CHEMICAL CORPORATION, priority 2019, published 2023).

Key:
late watergrass = assay: Test Example 1: herbicidal activity, application before weed generation under submerged conditions (Table 16, symbol A); format: in vivo, late watergrass (Echinochloa oryzicola); conditions: 320 g/ha applied herbicide
Summary of the method: (§1)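 Submerged Wagner pots (alluvial soil, 4 cm water) sown with weed seeds and planted with 2.5-leaf rice seedlings; emulsifiable concentrate diluted in water applied to water surface on sowing day. Held in greenhouse at 25-30 °C; injury scored 0-5 by herbicidal rate after three weeks.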

Japanese bulrush = assay: Test Example 1: herbicidal activity, application before weed generation under submerged conditions (Table 16, symbol B); format: in vivo, Japanese bulrush (Schoenoplectus juncoides); conditions: 320 g/ha applied herbicide
Summary of the method: as §1

oval-leafed pondweed = assay: Test Example 1: herbicidal activity, application before weed generation under submerged conditions (Table 16, symbol C); format: in vivo, oval-leafed pondweed (Monochoria vaginalis); conditions: 320 g/ha applied herbicide
Summary of the method: as §1

barnyard grass [1] = assay: Test Example 3: herbicidal effect by foliage application, Wagner pot (Table 18, symbol H); format: in vivo, barnyard grass (Echinochloa crus-galli); conditions: 320 g/ha
Summary of the method: (§2)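 Plants were sown in alluvial soil held under 0.1–0.5 cm standing water and grown 14 days in a greenhouse at 25–30 °C. An emulsifiable formulation, water-diluted to the set dose, was then sprayed onto the foliage, and effects were scored three weeks later using previously defined criteria.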

Chinese sprangletop = assay: Test Example 3: herbicidal effect by foliage application, Wagner pot (Table 18, symbol D); format: in vivo, chinese sprangletop (Leptochloa chinensis); conditions: 320 g/ha
Summary of the method: as §2

rice flat sedge = assay: Test Example 3: herbicidal effect by foliage application, Wagner pot (Table 18, symbol E); format: in vivo, rice flat sedge (Cyperus iria); conditions: 320 g/ha
Summary of the method: as §2

southern crabgrass [2] = assay: Test Example 4: herbicidal effect by soil treatment (Table 19, symbol F); format: in vivo, southern crabgrass (Digitaria ciliaris); conditions: amount of applied herbicide 320 g/ha
Summary of the method: (§3)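 Applied as a water-diluted emulsion, the compound was sprayed onto soil covering newly sown seeds. Evaluation came three weeks after application, in a greenhouse held at 25° C. to 30° C.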

green foxtail [3] = assay: Test Example 4: herbicidal effect by soil treatment (Table 19, symbol G); format: in vivo, green foxtail (Setaria viridis); conditions: amount of applied herbicide 320 g/ha
Summary of the method: as §3

barnyard grass [4] = assay: Test Example 4: herbicidal effect by soil treatment (Table 19, symbol H); format: in vivo, barnyard grass (Echinochloa crus-galli); conditions: amount of applied herbicide 320 g/ha
Summary of the method: as §3

wild oat [5] = assay: Test Example 4: herbicidal effect by soil treatment (Table 19, symbol I); format: in vivo, wild oat (Avena fatua); conditions: amount of applied herbicide 320 g/ha
Summary of the method: as §3

blackgrass [6] = assay: Test Example 4: herbicidal effect by soil treatment (Table 19, symbol J); format: in vivo, blackgrass (Alopecurus myosuroides); conditions: amount of applied herbicide 320 g/ha
Summary of the method: as §3

Italian ryegrass [7] = assay: Test Example 4: herbicidal effect by soil treatment (Table 19, symbol K); format: in vivo, Italian ryegrass (Lolium multiflorum); conditions: amount of applied herbicide 320 g/ha
Summary of the method: as §3

windgrass [8] = assay: Test Example 4: herbicidal effect by soil treatment (Table 19, symbol L); format: in vivo, windgrass (Apera spica-venti); conditions: amount of applied herbicide 320 g/ha
Summary of the method: as §3

velvetleaf [9] = assay: Test Example 4: herbicidal effect by soil treatment (Table 19, symbol M); format: in vivo, velvetleaf (Abutilon theophrasti); conditions: amount of applied herbicide 320 g/ha
Summary of the method: as §3

redroot pigweed [10] = assay: Test Example 4: herbicidal effect by soil treatment (Table 19, symbol N); format: in vivo, redroot pigweed (Amaranthus retroflexus); conditions: amount of applied herbicide 320 g/ha
Summary of the method: as §3

lambsquarters [11] = assay: Test Example 4: herbicidal effect by soil treatment (Table 19, symbol O); format: in vivo, lambsquarters (Chenopodium album); conditions: amount of applied herbicide 320 g/ha
Summary of the method: as §3

chickweed [12] = assay: Test Example 4: herbicidal effect by soil treatment (Table 19, symbol P); format: in vivo, common chickweed (Stellaria media); conditions: amount of applied herbicide 320 g/ha
Summary of the method: as §3

false cleavers [13] = assay: Test Example 4: herbicidal effect by soil treatment (Table 19, symbol Q); format: in vivo, false cleavers (Galium spurium); conditions: amount of applied herbicide 320 g/ha
Summary of the method: as §3

persian speedwell [14] = assay: Test Example 4: herbicidal effect by soil treatment (Table 19, symbol R); format: in vivo, Persian speedwell (Veronica persica); conditions: amount of applied herbicide 320 g/ha
Summary of the method: as §3

southern crabgrass [15] = assay: Test Example 5: herbicidal effect by foliage application, plastic box (Table 20, symbol F); format: in vivo, southern crabgrass (Digitaria ciliaris); conditions: foliage application, 320 g/ha, three weeks after application
Summary of the method: (§4)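 Sow seeds spot-wise in sterilized diluvial soil; cover with ~1.5 cm soil. Grow 14 days in greenhouse, 25° C. to 30° C. Spray foliage with emulsion diluted to predetermined amount. Rate effect after 3 weeks.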

green foxtail [16] = assay: Test Example 5: herbicidal effect by foliage application, plastic box (Table 20, symbol G); format: in vivo, green foxtail (Setaria viridis); conditions: foliage application, 320 g/ha, three weeks after application
Summary of the method: as §4

barnyard grass [17] = assay: Test Example 5: herbicidal effect by foliage application, plastic box (Table 20, symbol H); format: in vivo, barnyard grass (Echinochloa crus-galli); conditions: foliage application, 320 g/ha, three weeks after application
Summary of the method: as §4

wild oat [18] = assay: Test Example 5: herbicidal effect by foliage application, plastic box (Table 20, symbol I); format: in vivo, wild oat (Avena fatua); conditions: foliage application, 320 g/ha, three weeks after application
Summary of the method: as §4

blackgrass [19] = assay: Test Example 5: herbicidal effect by foliage application, plastic box (Table 20, symbol J); format: in vivo, blackgrass (Alopecurus myosuroides); conditions: foliage application, 320 g/ha, three weeks after application
Summary of the method: as §4

Italian ryegrass [20] = assay: Test Example 5: herbicidal effect by foliage application, plastic box (Table 20, symbol K); format: in vivo, Italian ryegrass (Lolium multiflorum); conditions: foliage application, 320 g/ha, three weeks after application
Summary of the method: as §4

windgrass [21] = assay: Test Example 5: herbicidal effect by foliage application, plastic box (Table 20, symbol L); format: in vivo, windgrass (Apera spica-venti); conditions: foliage application, 320 g/ha, three weeks after application
Summary of the method: as §4

velvetleaf [22] = assay: Test Example 5: herbicidal effect by foliage application, plastic box (Table 20, symbol M); format: in vivo, velvetleaf (Abutilon theophrasti); conditions: foliage application, 320 g/ha, three weeks after application
Summary of the method: as §4

redroot pigweed [23] = assay: Test Example 5: herbicidal effect by foliage application, plastic box (Table 20, symbol N); format: in vivo, redroot pigweed (Amaranthus retroflexus); conditions: foliage application, 320 g/ha, three weeks after application
Summary of the method: as §4

lambsquarters [24] = assay: Test Example 5: herbicidal effect by foliage application, plastic box (Table 20, symbol O); format: in vivo, lambsquarters (Chenopodium album); conditions: foliage application, 320 g/ha, three weeks after application
Summary of the method: as §4

chickweed [25] = assay: Test Example 5: herbicidal effect by foliage application, plastic box (Table 20, symbol P); format: in vivo, common chickweed (Stellaria media); conditions: foliage application, 320 g/ha, three weeks after application
Summary of the method: as §4

false cleavers [26] = assay: Test Example 5: herbicidal effect by foliage application, plastic box (Table 20, symbol Q); format: in vivo, false cleavers (Galium spurium); conditions: foliage application, 320 g/ha, three weeks after application
Summary of the method: as §4

persian speedwell [27] = assay: Test Example 5: herbicidal effect by foliage application, plastic box (Table 20, symbol R); format: in vivo, Persian speedwell (Veronica persica); conditions: foliage application, 320 g/ha, three weeks after application
Summary of the method: as §4

| SMILES | Herbicidal effect on A: late watergrass (grade 0-5) (late watergrass) | Herbicidal effect on B: Japanese bulrush (grade 0-5) (Japanese bulrush) | Herbicidal effect on C: oval-leafed pondweed (grade 0-5) (oval-leafed pondweed) | herbicidal effect on H (barnyard grass), rating 0-5 (barnyard grass [1]) | herbicidal effect on D (Chinese sprangletop), rating 0-5 (Chinese sprangletop) | herbicidal effect on E (rice flat sedge), rating 0-5 (rice flat sedge) | herbicidal effect rating, F: southern crabgrass (southern crabgrass [2]) | herbicidal effect rating, G: green foxtail (green foxtail [3]) | herbicidal effect rating, H: barnyard grass (barnyard grass [4]) | herbicidal effect rating, I: wild oat (wild oat [5]) | herbicidal effect rating, J: blackgrass (blackgrass [6]) | herbicidal effect rating, K: Italian ryegrass (Italian ryegrass [7]) | herbicidal effect rating, L: windgrass (windgrass [8]) | herbicidal effect rating, M: velvetleaf (velvetleaf [9]) | herbicidal effect rating, N: redroot pigweed (redroot pigweed [10]) | herbicidal effect rating, O: lambsquarters (lambsquarters [11]) | herbicidal effect rating, P: chickweed (chickweed [12]) | herbicidal effect rating, Q: false cleavers (false cleavers [13]) | herbicidal effect rating, R: persian speedwell (persian speedwell [14]) | herbicidal effect grade, F: southern crabgrass (southern crabgrass [15]) | other results |
| --- | --- | --- | --- | --- | --- | --- | --- | --- | --- | --- | --- | --- | --- | --- | --- | --- | --- | --- | --- | --- | --- |
| CCCCc1ccc(-c2sc3ccccc3c2-c2c(O)c(C)nn(C)c2=O)cc1 [1-005] | 2 (Herbicidal rate of 20% or more and less than 40%) | 0 (Herbicidal rate of 5% or less (almost no effect)) | 0 (Herbicidal rate of 5% or less (almost no effect)) | 4 (Herbicidal rate of 70% or more and less than 90%) | 0 (Herbicidal rate of 5% or less (almost no effect)) | 5 (Herbicidal rate of 90% or more (almost completely withered)) | 0 (Herbicidal rate of 5% or less (almost no effect)) | 0 (Herbicidal rate of 5% or less (almost no effect)) | 0 (Herbicidal rate of 5% or less (almost no effect)) | 0 (Herbicidal rate of 5% or less (almost no effect)) | 0 (Herbicidal rate of 5% or less (almost no effect)) | 0 (Herbicidal rate of 5% or less (almost no effect)) | 0 (Herbicidal rate of 5% or less (almost no effect)) | 0 (Herbicidal rate of 5% or less (almost no effect)) | 0 (Herbicidal rate of 5% or less (almost no effect)) | 0 (Herbicidal rate of 5% or less (almost no effect)) | 0 (Herbicidal rate of 5% or less (almost no effect)) | 0 (Herbicidal rate of 5% or less (almost no effect)) | 4 (Herbicidal rate of 70% or more and less than 90%) | 0 (Herbicidal rate of 5% or less (almost no effect)) | herbicidal effect grade, G: green foxtail (green foxtail [16]): 0 (Herbicidal rate of 5% or less (almost no effect)); herbicidal effect grade, H: barnyard grass (barnyard grass [17]): 0 (Herbicidal rate of 5% or less (almost no effect)); herbicidal effect grade, I: wild oat (wild oat [18]): 0 (Herbicidal rate of 5% or less (almost no effect)); herbicidal effect grade, J: blackgrass (blackgrass [19]): 0 (Herbicidal rate of 5% or less (almost no effect)); herbicidal effect grade, K: Italian ryegrass (Italian ryegrass [20]): 0 (Herbicidal rate of 5% or less (almost no effect)); herbicidal effect grade, L: windgrass (windgrass [21]): 0 (Herbicidal rate of 5% or less (almost no effect)); herbicidal effect grade, M: velvetleaf (velvetleaf [22]): 3 (Herbicidal rate of 40% or more and less than 70%); herbicidal effect grade, N: redroot pigweed (redroot pigweed [23]): 4 (Herbicidal rate of 70% or more and less than 90%); herbicidal effect grade, O: lambsquarters (lambsquarters [24]): 5 (Herbicidal rate of 90% or more (almost completely withered)); herbicidal effect grade, P: chickweed (chickweed [25]): 5 (Herbicidal rate of 90% or more (almost completely withered)); herbicidal effect grade, Q: false cleavers (false cleavers [26]): 0 (Herbicidal rate of 5% or less (almost no effect)); herbicidal effect grade, R: persian speedwell (persian speedwell [27]): 5 (Herbicidal rate of 90% or more (almost completely withered)) |
| CCCCc1ccc(-c2sc3ccccc3c2-c2c(OC(=O)CCC)c(C)nn(C)c2=O)cc1 [1-006] | 3 (Herbicidal rate of 40% or more and less than 70%) | 1 (Herbicidal rate of 5% or more and less than 20%) | 0 (Herbicidal rate of 5% or less (almost no effect)) | 3 (Herbicidal rate of 40% or more and less than 70%) | 0 (Herbicidal rate of 5% or less (almost no effect)) | 5 (Herbicidal rate of 90% or more (almost completely withered)) | 0 (Herbicidal rate of 5% or less (almost no effect)) | 0 (Herbicidal rate of 5% or less (almost no effect)) | 0 (Herbicidal rate of 5% or less (almost no effect)) | 0 (Herbicidal rate of 5% or less (almost no effect)) | 0 (Herbicidal rate of 5% or less (almost no effect)) | 0 (Herbicidal rate of 5% or less (almost no effect)) | 0 (Herbicidal rate of 5% or less (almost no effect)) | 0 (Herbicidal rate of 5% or less (almost no effect)) | 0 (Herbicidal rate of 5% or less (almost no effect)) | 4 (Herbicidal rate of 70% or more and less than 90%) | 0 (Herbicidal rate of 5% or less (almost no effect)) | 0 (Herbicidal rate of 5% or less (almost no effect)) | 3 (Herbicidal rate of 40% or more and less than 70%) | 0 (Herbicidal rate of 5% or less (almost no effect)) | herbicidal effect grade, G: green foxtail (green foxtail [16]): 0 (Herbicidal rate of 5% or less (almost no effect)); herbicidal effect grade, H: barnyard grass (barnyard grass [17]): 0 (Herbicidal rate of 5% or less (almost no effect)); herbicidal effect grade, I: wild oat (wild oat [18]): 0 (Herbicidal rate of 5% or less (almost no effect)); herbicidal effect grade, J: blackgrass (blackgrass [19]): 0 (Herbicidal rate of 5% or less (almost no effect)); herbicidal effect grade, K: Italian ryegrass (Italian ryegrass [20]): 0 (Herbicidal rate of 5% or less (almost no effect)); herbicidal effect grade, L: windgrass (windgrass [21]): 0 (Herbicidal rate of 5% or less (almost no effect)); herbicidal effect grade, M: velvetleaf (velvetleaf [22]): 4 (Herbicidal rate of 70% or more and less than 90%); herbicidal effect grade, N: redroot pigweed (redroot pigweed [23]): 5 (Herbicidal rate of 90% or more (almost completely withered)); herbicidal effect grade, O: lambsquarters (lambsquarters [24]): 4 (Herbicidal rate of 70% or more and less than 90%); herbicidal effect grade, P: chickweed (chickweed [25]): 5 (Herbicidal rate of 90% or more (almost completely withered)); herbicidal effect grade, Q: false cleavers (false cleavers [26]): 0 (Herbicidal rate of 5% or less (almost no effect)); herbicidal effect grade, R: persian speedwell (persian speedwell [27]): 5 (Herbicidal rate of 90% or more (almost completely withered)) |
